From publication PMC9249674, “A small-molecule Skp1 inhibitor elicits cell death by p53-dependent mechanism” (iScience, 2022)

Experiments:
[1] = biological target: T1, Skp1-ΔSkp2^F−box-peptide interaction (Homo sapiens, UniProt P63208); assay: FP-based in vitro competition assay; assay type: binding; conditions: for Ki: calculated from IC50 with Ki calculator
T1 construct: recombinantly purify intact (Skp1^WT) and truncate (ΔSkp1^1−140; lacking H8-helix) forms of Skp1; His6; made in house; host or cells: Escherichia coli BL21 (DE3)
Experimental: FP measurements were performed using an EnVision multilabel Reader (Perkin Elmer). […] Lyophilized F-box-FAM peptide was initially dissolved in a Tris buffer (20 mM Tris-HCl pH 9.0, 150 mM NaCl, 2 mM DTT), and then a stock solution of 100 μM was prepared by subsequent dilutions in a FP buffer (20 mM Tris-HCl pH 8.0, 150 mM NaCl, 2 mM DTT, 5% (v/v) glycerol, 0.001% (v/v) Triton X-100). Specific controls groups included free F-box-FAM (tracer), bound F-box-FAM in the presence of protein (Skp1^WT or ΔSkp1^1−140), and FP buffer for every measurement, allowing accurate estimation of specific polarization.
The selected subset of compounds were initially assayed at final concentration of 200 μM. The compounds were incubated at room temperature with Skp1^WT for 1 hr, followed by the addition of the tracer. […] After incubation for another 2 hrs, FP signals was measured on an EnVision multilabel Reader. The FP response was measured in quadruplicates with controls including free F-box-FAM (tracer), bound Skp1^WT-F-box-FAM, and FP buffer. The resultant FP values were plotted as bar graphs using ORIGIN Lab software.
For gradient FP assay, protein samples were mixed with an appropriate concentrations of ligand over the range of several folds. […] The IC50 value of the compound in the gradient-concentration assay was determined with nonlinear regression and fitting using the following equation in GraphPad Prism® v6.0 (San Diego, CA). Y = Bottom + (Top – Bottom)/(1 + 10^X−LogIC50). […] In short, the relationship between the IC50 of the inhibitor and the Ki of the inhibitor depends on the KD of the fluorescent ligand and the concentration of the receptor.

Skp1^WT = biological target: T2, Skp1^WT (Homo sapiens, UniProt P63208); assay: Thermal shift assay (TSA); assay type: binding; conditions: protein 8 μM
T2 construct: recombinantly purify intact (Skp1^WT) and truncate (ΔSkp1^1−140; lacking H8-helix) forms of Skp1; His6; made in house; host or cells: Escherichia coli BL21 (DE3)
Source text: (§1) TSA, also known as differential scanning fluorimetry (DSF), is used to identify the contribution of a ligand binding to an unfolding protein as a function of temperature. The detection involves increase in fluorescence of a fluorophore SYPRO Orange (Invitrogen) upon binding to the hydrophobic regions of the gradually unfolded protein. A ligand stabilizing a protein may increase the melting temperature (Tm). To detect the binding of Z0933M with Skp1, a gradient TSA was used, in which, protein samples were mixed with appropriate concentrations of ligand over the range of several folds. The protein (Skp1^WT or ΔSkp1^1−140) was kept constant at 8 μM, and the compound concentration was varied from 50 μM to 600 μM. For comparison with 6-OAP, a single concentration of 400 μM was tested with both Skp1^WT and ΔSkp1^1−140. All reactions were set up in final volume of 10 μL in 96-well plate with 1x SYPRO Orange (Invitrogen) and incubated with compounds on ice for 30 min. According to the experimental protocol, samples were heated at 0.5°C per minute, ranging from 30 to 90°C, and the fluorescence intensity was measured at the interval of 0.5°C. Appropriate buffer blank and protein-only controls were kept, and the shift in Tm was measured as ΔTm = Tm (ligand-protein) ‒ (protein-only). The resultant ΔTm values were plotted by using GraphPad Prism® v6.0 (San Diego, CA) and ORIGIN Lab softwares.

ΔSkp1^1−140 [2] = biological target: T3, ΔSkp1^1−140 (Homo sapiens, UniProt P63208); assay: Thermal shift assay (TSA); assay type: binding; conditions: protein 8 μM
T3 construct: pETDuet-Skp1(1-140); His6; made in house; host or cells: Escherichia coli BL21 (DE3)
Source text: as §1

ΔSkp1^1−140 [3] = biological target: T3, ΔSkp1^1−140; assay: SPRi assay; assay type: binding
Experimental: Freshly deposited gold coated standard SPRi chips/slides (Plexera, LLC) were cleaned, and compound(s) at 10 mM concentration in 100% DMSO were spotted on the chips using a micropipette. After this, the slides were left for complete evaporation of DMSO (under vacuum) at room temperature for 2 hrs. […] The slides were subsequently washed with DMSO, ethanol, and finally with distilled water for 15 minutes (ultrasonically), respectively, to remove non-covalently bound compounds. After drying with nitrogen, the slides were assembled with flow cell and then mounted on SPRi instrument for measurement, or stored at 4°C to be used for later experiments.
All the experiments were carried out using the PlexArray® HT system (Plexera, LLC), which is based on surface plasmon resonance imaging. Oval regions of interests (ROIs) were set as 9 pixels × 7 pixels area in imaging area. ROIs of vehicle (DMSO) were used as controls for measurement of specific signals. […] A 1:3 mixture of glycine. HCL (pH 4.2) and 0.5% (v/v) SDS, respectively, was used to regenerate the surface and remove bound proteins from the small molecules enabling the sensor chip to be reused for additional analyte injections.
The Tris buffer (10 mM Tris-HCl pH 8.0, 100 mM NaCl), without any reducing agent, was used as both analyte and running buffer. […]

mycobacterial = assay: Anti-mycobacterial evaluation; assay type: cell-based
A549 cells = assay: Caspase-Glo 3/7 activity; assay type: cell-based, human; conditions: dose- and time-dependent treatment
Experimental: The activities of caspase-3/7, −8 and −9 were measured using Caspase-Glo® 3/7,8, and 9 assay kits (Promega, Madison, WI, USA) according to the manufacturer’s protocol. Briefly, the cells were plated over-night in a white 384 well microplate, and then treated as indicated with Z0933M. After treatment, 25 μL of each caspase substrate was added and incubated at room temperature for 30 min. Upon activation of caspase in the apoptotic cells, the substrate will give a luminescence signal after cleavage of the aminoluciferin-labelled synthetic tetrapeptide. Luminescent signals were detected using an EnSpire multimode plate reader (PerkinElmer). For inhibitor interventions and Skp1 overexpression, the experiments were performed in 96 well format.

recombinant GST = recombinant GST (Schistosoma japonicum, UniProt P08515); assay: LC-MS/MS analysis of in vitro binding, negative control protein
Sequence of recombinant GST (P08515 2-218 limits assumed): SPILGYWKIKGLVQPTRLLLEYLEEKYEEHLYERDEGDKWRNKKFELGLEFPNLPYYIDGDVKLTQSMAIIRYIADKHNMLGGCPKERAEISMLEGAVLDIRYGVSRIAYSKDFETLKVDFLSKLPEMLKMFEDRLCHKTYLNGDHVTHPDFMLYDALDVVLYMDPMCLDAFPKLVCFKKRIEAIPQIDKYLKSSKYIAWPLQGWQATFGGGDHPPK

T1 sequence (P63208 whole entry, stated change not applied, the tested form may be a part): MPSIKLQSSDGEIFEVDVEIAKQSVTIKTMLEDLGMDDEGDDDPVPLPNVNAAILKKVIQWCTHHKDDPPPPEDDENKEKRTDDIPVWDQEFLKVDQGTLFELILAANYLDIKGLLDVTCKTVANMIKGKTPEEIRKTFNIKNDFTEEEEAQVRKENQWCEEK
T2 sequence (P63208 whole entry, the tested form may be a part): as the sequence (P63208 whole entry, stated change not applied, the tested form may be a part) above
T3 sequence (P63208 1-140, stated change not applied): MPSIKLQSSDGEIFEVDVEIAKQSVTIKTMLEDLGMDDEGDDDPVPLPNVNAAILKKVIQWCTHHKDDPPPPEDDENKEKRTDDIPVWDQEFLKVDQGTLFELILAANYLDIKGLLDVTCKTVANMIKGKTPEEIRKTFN

Nc1ccc(-c2nc3ccccc3c3[nH]c4ccccc4c23)cc1 [Z0933M]
inhibition of Skp1-ΔSkp2^F−box-peptide interaction ([1]; 200 μM compound, 25 μM Skp1^WT, 500 nM tracer): almost completely disrupted
Ki [1]: 231 ± 18 nM
Ki ([1]; figure): ~231 nM
IC50 ([1]; dose-response FP, Skp1^WT 25 μM, tracer 500 nM): ~25000 nM
ΔTm at 50 µM (Skp1^WT; 50 μM compound): 0.3 °C
ΔTm at 100 µM (Skp1^WT; 100 μM compound): 0.6 °C
ΔTm at 200 µM (Skp1^WT; 200 μM compound): 2.4 °C
ΔTm at 400 µM (Skp1^WT; 400 μM compound): 7.8 °C
ΔTm at 600 µM (Skp1^WT; 600 μM compound): 10.5 °C
ΔTm at 50 µM (ΔSkp1^1−140 [2]; 50 μM compound): 0.9 °C
ΔTm at 100 µM (ΔSkp1^1−140 [2]; 100 μM compound): 0.6 °C
ΔTm at 200 µM (ΔSkp1^1−140 [2]; 200 μM compound): 2.1 °C
ΔTm at 400 µM (ΔSkp1^1−140 [2]; 400 μM compound): 10.8 °C
ΔTm at 600 µM (ΔSkp1^1−140 [2]; 600 μM compound): 11.1 °C
Kd (ΔSkp1^1−140 [3]): 40.4 ± 8.2 nM
MIC (mycobacterial): > 30 µM
caspase 3/7 activity (A549 cells): dose- and time-dependently induced caspase 3/7 activity
presence in mass spectra (non-specific binding) (recombinant GST): absent
